# Laboratory results reported in patent US6867192B1, “Compounds useful in the treatment of inflammatory diseases” (priority 1998, dated 2005).
# pIC50: −log10 of the molar value.
# Biological target: T1, integrin VLA-4, expressed on the Jurkat J6 (human lymphoblast cell line) cell membrane with VCAM-1 (Homo sapiens, UniProt P05556+P13612)
# T1 construct: integrin VLA-4, expressed on the Jurkat J6 (human lymphoblast cell line) cell membrane; endogenous in cells; host or cells: Jurkat J6 cells (integrin). zzVCAM-1 was made in house in Drosophila melanogaster S2 cells
# T1 sequence (P13612 34-1032): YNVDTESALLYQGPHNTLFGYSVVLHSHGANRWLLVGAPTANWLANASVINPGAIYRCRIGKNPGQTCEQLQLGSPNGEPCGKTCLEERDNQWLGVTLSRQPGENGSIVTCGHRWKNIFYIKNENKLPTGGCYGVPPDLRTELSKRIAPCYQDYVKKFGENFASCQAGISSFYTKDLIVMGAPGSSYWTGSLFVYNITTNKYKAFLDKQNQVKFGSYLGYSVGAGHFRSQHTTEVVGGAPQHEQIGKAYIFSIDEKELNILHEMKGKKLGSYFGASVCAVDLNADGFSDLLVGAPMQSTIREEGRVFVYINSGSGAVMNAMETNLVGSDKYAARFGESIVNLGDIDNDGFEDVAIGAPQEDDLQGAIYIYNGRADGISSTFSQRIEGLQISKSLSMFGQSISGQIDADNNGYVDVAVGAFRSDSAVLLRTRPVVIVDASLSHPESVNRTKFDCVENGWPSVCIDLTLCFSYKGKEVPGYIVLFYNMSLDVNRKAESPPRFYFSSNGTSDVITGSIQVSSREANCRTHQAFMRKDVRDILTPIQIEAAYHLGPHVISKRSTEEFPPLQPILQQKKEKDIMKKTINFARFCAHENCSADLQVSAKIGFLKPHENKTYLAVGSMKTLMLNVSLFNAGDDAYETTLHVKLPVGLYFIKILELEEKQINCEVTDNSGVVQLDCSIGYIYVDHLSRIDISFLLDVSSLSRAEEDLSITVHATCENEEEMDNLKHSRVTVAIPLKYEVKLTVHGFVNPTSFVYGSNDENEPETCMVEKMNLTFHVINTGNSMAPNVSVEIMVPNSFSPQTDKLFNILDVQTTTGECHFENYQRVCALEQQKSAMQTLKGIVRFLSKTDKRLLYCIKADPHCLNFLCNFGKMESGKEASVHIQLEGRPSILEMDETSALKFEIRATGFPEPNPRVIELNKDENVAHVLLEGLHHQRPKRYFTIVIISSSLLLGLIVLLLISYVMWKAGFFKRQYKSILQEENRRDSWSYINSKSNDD
# T1 sequence (P05556 21-798): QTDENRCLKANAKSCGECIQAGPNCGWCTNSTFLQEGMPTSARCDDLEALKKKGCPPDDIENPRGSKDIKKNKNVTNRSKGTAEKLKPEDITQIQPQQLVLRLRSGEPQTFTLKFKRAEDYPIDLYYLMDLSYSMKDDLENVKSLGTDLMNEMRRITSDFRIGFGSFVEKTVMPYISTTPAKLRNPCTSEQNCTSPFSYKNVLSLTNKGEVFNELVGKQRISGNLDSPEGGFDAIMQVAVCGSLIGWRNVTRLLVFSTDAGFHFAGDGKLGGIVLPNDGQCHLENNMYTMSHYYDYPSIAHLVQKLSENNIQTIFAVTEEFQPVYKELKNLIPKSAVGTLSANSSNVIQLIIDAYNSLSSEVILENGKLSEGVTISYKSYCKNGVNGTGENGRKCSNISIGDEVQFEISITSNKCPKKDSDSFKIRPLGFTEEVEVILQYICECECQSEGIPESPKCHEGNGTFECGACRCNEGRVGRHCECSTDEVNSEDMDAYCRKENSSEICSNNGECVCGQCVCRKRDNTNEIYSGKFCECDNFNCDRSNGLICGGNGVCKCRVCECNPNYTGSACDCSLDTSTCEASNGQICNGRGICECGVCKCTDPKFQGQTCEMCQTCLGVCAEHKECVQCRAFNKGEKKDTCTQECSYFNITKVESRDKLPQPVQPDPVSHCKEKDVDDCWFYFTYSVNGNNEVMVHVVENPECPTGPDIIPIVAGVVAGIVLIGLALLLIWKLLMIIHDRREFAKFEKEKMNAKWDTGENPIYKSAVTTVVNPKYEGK
# Test: Jurkat J6/VCAM-1 adhesion assay
# Type: cell-based
# Settings: Jurkat J6 cell adhesion to VCAM-1, 1 mM MnCl2; mean of n experiments
# Procedure: (1) Jurkat J6/VCAM-1 Adhesion Assay
# This assay was used to investigate the interaction of the integrin VLA-4, expressed on the Jurkat J6 (human lymphoblast cell line) cell membrane with VCAM-1. Polystyrene 96-well microtitre plates were coated with human immunoglobulin G (IgG; Sigma Chemicals, UK, Product No. 14506) at a concentration of 0.05 mg ml^−1 in bicarbonate buffer (36 mM NaHCO3 and 22 mM Na2CO3, prepared in Dulbecco's phosphate buffered saline at pH 9.8 (PBS); Sigma Chemicals, UK, Product No. 14190-094) for 2 hours at 37° C. This solution was then aspirated and the plates were washed twice with PBS.
# VCAM-1 was prepared by cloning its constituent seven domains into a Drosophila expression system with a zz (Protein A) tag. This zzVCAM-1 was then expressed from Drosophila melanogaster S2 cell culture, induced with copper. Protease inhibitors were added and the culture supernatant was clarified either by filtration through a 0.2 μm filter or by centrifugation. The zzVCAM-1 was then purified from this clarified medium using an IgG agarose column, equilibrated with either 20 mM sodium phosphate pH 7.2 alone or in the presence of 0.5M sodium chloride. Elution of zzVCAM-1 from the column was mediated using 3M ammonium thiocyanate, which was subsequently removed using a G25 desalting column, equilibrated with 20 mM sodium phosphate, pH 7.2. The purified zzVCAM-1 was then concentrated to a small volume (Amicon stirred cell concentrators) until a concentration of 62.5 ng ml^−1 was obtained, calculated using the extinction coefficient value.
# This solution of zzVCAM-1 was then incubated overnight at 4° C. in the IgG coated microtitre plates with 3% bovine serum albumin (BSA) in PBS, followed by aspiration and two further washes with PBS. A concentration of the Jurkat J6 cells (6×10^6 cels ml^−1), grown in cell media RPMI 1640 (HyClone Ltd, Product No. B-9106-L) supplemented with 10% heat inactivated fetal calf serum (FCS; Gibco BRL, Product No. 10099-075) and 2 mM L-glutamine, were labelled with 10 μM of the fluorescent dye, 2′, 7′-bis(2-carboxyethyl)-5-(e6)-carboxyfluorescein acetoxymethyl ester (BCECF-AM; Molecular Probes Inc, Product No. B-1150) at 37° C. for 10 minutes. The excess dye was then removed by centrifugation at 500×g for 5 minutes and the cells were resuspended at a concentration of 1.2×10^7 cells ml^−1 in Hank's balanced salt solution (HBSS; Gibco BRL, Product No. 14190-094).
# Equal volumes of compounds (dissolved in an appropriate solvent and diluted in HBSS containing 1 mM MnCl2) and the labelled Jurkat J6 cells, were added to the VCAM-1 coated plates and adhesion was allowed to proceed for 30 minutes at 37° C. Non, or loosely adhered cells, were removed by inversion of the plate and blotted with tissue paper. Two washes with PBS and further blotting were then performed, before the addition of 2% detergent (Triton-X®; Sigma Chemicals UK, Product No. X100). Counting was undertaken in a Wallac Viktor™ Fluorimeter, where low fluorescence values were indicative of compounds which had inhibited adhesion. All samples were assayed in singlicate and the following four parameter curve fit, shown by Equation (I) was applied: [formula]
# Where a is the minimum, b is the Hill slope, c is the IC50 and d is the maximum. (Maximum and minimum values are those compared to adhesion in the absence of compound and in the presence of the dipotassium salt of 2 mM EDTA; Sigma Chemicals, UK, Product No. ED2P). Data is presented as the mean pIC50 with the standard error of the mean of n experiments.
row,pIC50,Compound
1,7.59,"CC(C)C[C@H](NC(=O)c1cccc2c1oc1ccccc12)C(=O)N[C@@H](Cc1ccc(OC(=O)N2CCC(C(=O)N3CCCCC3)CC2)cc1)C(=O)O [Example 31, (2S)-2-({(2S)-2-[(Dibenzo[b,d]furan-4-ylcarbonyl)amino]-4-methylpentanoyl}amino)-3-[4-({[4-(1-piperidinylcarbonyl)-1-piperidinyl]carbonyl}oxy)phenyl]propanoic acid]"
2,8.18,"CC(C)C[C@H](NC(=O)COc1ccc(Cl)cc1Cl)C(=O)N[C@@H](Cc1ccc(OC(=O)N2CCOCC2)cc1)C(=O)O [Example 35, (2S)-2-[((2S)-2-{[2-(2,4-Dichlorophenoxy)acetyl]amino}-4-methylpentanoyl)amino]-3-{4-[(4-morpholinylcarbonyl)oxy]phenyl}propanoic acid]"
3,7.58,"CC(C)C[C@H](NC(=O)COc1ccccc1I)C(=O)N[C@@H](Cc1ccc(OC(=O)N2CCC(NC(=O)C(C3CCCCC3)C3CCCCC3)CC2)cc1)C(=O)O [Example 9, (2S)-3-{4-[({4-[(2,2-Dicyclohexylacetyl)amino]-1-piperidinyl}carbonyl)oxy]phenyl}-2-[((2S)-2-{[2-(2-iodophenoxy)acetyl]amino}-4-methylpentanoyl)amino]propanoic acid]"
4,8.24,"CCCc1ccccc1OCC(=O)N[C@@H](CC(C)C)C(=O)N[C@@H](Cc1ccc(OC(=O)N2CCOCC2)cc1)C(=O)O [Example 37, (2S)-2-[((2S)-4-Methyl-2-{[2-(2-propylphenoxy)acetyl]amino}pentanoyl)amino]-3-{4-[(4-morpholinylcarbonyl)oxy]phenyl}propanoic acid]"
5,7.81,"CC(C)C[C@H](NC(=O)COc1ccc2ccccc2c1Br)C(=O)N[C@@H](Cc1ccc(OC(=O)N2CCOCC2)cc1)C(=O)O [Example 38, (2S)-2-{[(2S)-2-({2-[(1-Bromo-2-naphthyl)oxy]acetyl}amino)-4-methylpentanoyl]amino}-3-{4-[(4-morpholinylcarbonyl)oxy]phenyl}propanoic acid]"
6,7.78,"CC(C)C[C@H](NC(=O)COc1ccccc1I)C(=O)N[C@@H](Cc1ccc(OC(=O)N2CCC(NC(=O)Cc3ccccc3)CC2)cc1)C(=O)O [Example 14, (2S)-2-[((2S)-2-{[2-(2-Iodophenoxy)acetyl]amino}-4-methylpentanoyl)amino]-3-{4-[({4-[(2-phenylacetyl)amino]-1-piperidinyl}carbonyl)oxy]phenyl}propanoic acid]"
7,8.11,"CC(C)C[C@H](NC(=O)COc1ccc(C(=O)N2CCCCC2)cc1)C(=O)N[C@@H](Cc1ccc(OC(=O)N2CCC(C(N)=O)CC2)cc1)C(=O)O [Example 5, (2S)-3-[4-({[4-(Aminocarbonyl)-1-piperidinyl]carbonyl}oxy)phenyl]-2-{[(2S)-4-methyl-2-({2-[4-(1-piperidinylcarbonyl)phenoxy]acetyl}amino)pentanoyl]amino}propanoic acid]"
8,8.08,"CC(C)C[C@H](NC(=O)c1cccc2c1oc1ccccc12)C(=O)N[C@@H](Cc1ccc(OC(=O)N2CCOCC2)cc1)C(=O)O [Example 10, (2S)-2-({(2S)-2-[(Dibenzo[b,d]furan-4-ylcarbonyl)amino]-4-methylpentanoyl}amino)-3-{4-[(4-morpholinylcarbonyl)oxy]phenyl}propanoic acid]"
9,8.25,"CC(C)C[C@H](NC(=O)COc1ccccc1C(=O)c1ccccc1)C(=O)N[C@@H](Cc1ccc(OC(=O)N2CCC(C(N)=O)CC2)cc1)C(=O)O [Example 6, (2S)-3-[4-({[4-(Aminocarbonyl)-1-piperidinyl]carbonyl}oxy)phenyl]-2-[((2S)-2-{[2-(2-benzoylphenoxy)acetyl]amino}-4-methylpentanoyl)amino]propanoic acid]"
10,7.48,"CC(C)C[C@H](NC(=O)COc1ccccc1I)C(=O)N[C@@H](Cc1ccc(OC(=O)N2CCC(NC(=O)Cc3ccc(Cl)cc3)CC2)cc1)C(=O)O [Example 47, (2S)-3-(4-{[(4-{[2-(4-Chlorophenyl)acetyl]amino}-1-piperidinyl)carbonyl]oxy}phenyl)-2-[((2S)-2-{[2-(2-iodophenoxy)acetyl]amino}-4-methylpentanoyl)amino]propanoic acid]"
11,7.62,"CC(C)C[C@H](NC(=O)COc1ccc2ccccc2c1Br)C(=O)N[C@@H](Cc1ccc(OC(=O)N2CCC(C(=O)N3CCCCC3)CC2)cc1)C(=O)O [Example 32, (2S)-2-{[(2S)-2-({2-[(1-Bromo-2-naphthyl)oxy]acetyl}amino)-4-methylpentanoyl]amino}-3-[4-({[4-(1-piperidinylcarbonyl)-1-piperidinyl]carbonyl}oxy)phenyl]propanoic acid]"
12,8.03,"CC(C)C[C@H](NC(=O)COc1ccccc1I)C(=O)N[C@@H](Cc1ccc(OC(=O)N2CCN(C(=O)c3ccco3)CC2)cc1)C(=O)O [Example 41, (2S)-3-[4-({[4-(2-Furoyl)-1-piperazinyl]carbonyl}oxy)phenyl]-2-[((2S)-2-{[2-(2-iodophenoxy)acetyl]amino}-4-methylpentanoyl)amino]propanoic acid]"
13,7.96,"CC(C)C[C@H](NC(=O)c1cccc2c1oc1ccccc12)C(=O)N[C@@H](Cc1ccc(OC(=O)N2CCN(C(=O)c3ccccc3)CC2)cc1)C(=O)O [Example 12, (2S)-3-(4-{[(4-Benzoyl-1-piperazinyl)carbonyl]oxy}phenyl)-2-({(2S)-2-[(dibenzo[b,d]furan-4-ylcarbonyl)amino]-4-methylpentanoyl}amino)propanoic acid]"
14,8.25,"Cc1ccccc1OCC(=O)N[C@@H](CC(C)C)C(=O)N[C@@H](Cc1ccc(OC(=O)N2CCC(NC(=O)Cc3ccccc3)CC2)cc1)C(=O)O [Example 54, (2S)-2-[((2S)-4-Methyl-2-{[2-(2-methylphenoxy)acetyl]amino}pentanoyl)amino]-3-{4-[({4-[(2-phenylacetyl)amino]-1-piperidinyl}carbonyl)oxy]phenyl}propanoic acid]"
15,8.58,"CC(C)C[C@H](NC(=O)COc1ccc(C(N)=O)cc1)C(=O)N[C@@H](Cc1ccc(OC(=O)N2CCC(C(N)=O)CC2)cc1)C(=O)O [Example 7, (2S)-2-{[(2S)-2-({2-[4-(Aminocarbonyl)phenoxy]acetyl}amino)-4-methylpentanoyl]amino}-3-[4-({[4-(aminocarbonyl)-1-piperidinyl]carbonyl}oxy)phenyl]propanoic acid]"
16,7.24,"CC(C)C[C@H](NC(=O)COc1ccccc1C1CCCCC1)C(=O)N[C@@H](Cc1ccc(OC(=O)N2CCC(NC(=O)Cc3ccc(Cl)cc3)CC2)cc1)C(=O)O [Example 45, (2S)-3-(4-{[(4-{[2-(4-Chlorophenyl)acetyl]amino}-1-piperidinyl)carbonyl]oxy}phenyl)-2-[((2S)-2-{[2-(2-cyclohexylphenoxy)acetyl]amino}-4-methylpentanoyl)amino]propanoic acid]"
17,8.50,"Cc1ccccc1OCC(=O)N[C@@H](CC(C)C)C(=O)N[C@@H](Cc1ccc(OC(=O)N2CCOCC2)cc1)C(=O)O [Example 25, (2S)-2-[((2S)-4-Methyl-2-{[2-(2-methylphenoxy)acetyl]amino}pentanoyl)amino]-3-{4-[(4-morpholinylcarbonyl)oxy]phenyl}propanoic acid]"
18,7.62,"CC(C)C[C@H](NC(=O)COc1ccc2ccccc2c1Br)C(=O)N[C@@H](Cc1ccc(OC(=O)N2CCN(C(=O)c3ccco3)CC2)cc1)C(=O)O [Example 44, (2S)-2-{[(2S)-2-({2-[(1-Bromo-2-naphthyl)oxy]acetyl}amino)-4-methylpentanoyl]amino}-3-[4-({[4-(2-furoyl)-1-piperazinyl]carbonyl}oxy)phenyl]propanoic acid]"
